Laboratory results from a melting point compilation (Tetko et al.; mined from patent text by program, amines drawn as free bases though some values may be those of a salt).

Point of comparison: `O=Cc1cnc2c(OCc3ccccc3)cccn12`, melting point 167 °C. Against it:
- CCCc1c2nc(C(=O)OC)cc(N)c2cc2c(=O)cc(C(=O)OCC)oc12 — higher, 267 to 270 °C
- CCC(C)(C)c1ccc(OCCCNC(=O)c2cc(N)c3ccccc3c2O)c(C(C)(C)CC)c1 — lower, 120 to 123 °C
- CC(=O)OCC(=O)C1=CCC2C3CCC4=CC(=O)C=CC4(C)C3(F)C(OC(C)=O)CC12C (configuration not stated) — higher, 294 to 296 °C
- CC(C)Oc1cc(Oc2ccc(S(C)(=O)=O)cn2)cc2cc(C3=NCC(CC(N)=O)S3)[nH]c12 (configuration not stated) — higher, 212 to 213 °C
- CCc1nc2c(N)nc3ccccc3c2n1CCCC#Cc1cccc(C(F)(F)F)c1 — higher, 178 to 181 °C
- Cc1cc(OCc2oc(-c3ccc(C(F)(F)F)cc3)nc2C)ccc1CCC(=O)O — lower, 113 to 115 °C
- Nc1cccc2nccnc12 — lower, 87 to 90 °C
- CC(=O)N1CCN(CCOc2ccc(C3CCN(C4=Nn5c(nnc5C(F)(F)F)CC4)CC3)cc2)CC1 — lower, 127 °C
- CN1CCC(O)(CNC=O)CC1 — lower, 116 to 122 °C
- CC(C)(C)OC(=O)N1CCC(CNC(=O)[C@@H]2CCCN2S(=O)(=O)c2ccc(Cl)c(CBr)c2Cl)CC1 — lower, 80 °C
- Cc1c(SCCN2CCOCC2)ccnc1CSc1nc2ccccc2n1CC(=O)O — higher, 223 to 225 °C
- CN1C2C=C(c3c[nH]c4ccc([N+](=O)[O-])cc34)CC1CC2 (configuration not stated) — higher, 234 to 236 °C
- Cc1c(C)c2c(c(C)c1OCC=Cc1ccccc1)C(c1ccc(C(C)C)cc1)C(C)(C)O2 (configuration not stated) — lower, 106 to 107 °C
- CCn1c(=O)c(-c2c(Cl)cccc2Cl)cc2cnc(Nc3ccccc3)nc21 — higher, 223 to 225 °C
- Cc1[nH]c2ccccc2c1CCCN1CCC(C(=O)c2ccc(F)cc2)CC1 — lower, 135 to 137 °C
- C=C1COc2c(N3CCC(NC(=O)OC(C)(C)C)C3)c(F)cc3c(=O)c(C(=O)O)cn1c23 (configuration not stated) — higher, 219 to 220 °C
- COc1ccc(-c2cnn(-c3cccc(C)n3)c(=O)c2)cc1 — not separable, 167 to 168 °C
- CCC(=C(c1ccccc1)c1ccc(OCC(O)CO)cc1)C1CCCC1 (configuration not stated) — lower, 89 to 91 °C
- Cc1c(NC(=O)CC(CSC(=O)COc2ccccc2)c2ccccc2)cccc1C(=O)O (configuration not stated) — lower, 130 to 132 °C
- Cc1nc2c(C)nn(C)c2c(=O)[nH]1 — higher, 258 to 260 °C
- O=C1NC(=O)C(c2ccc(NCc3ccc(Cl)c(Cl)c3)cc2)S1 (configuration not stated) — lower, 132 to 133 °C
- CCc1nc(N)nc(N)c1CCC(C)c1ccc(C(F)(F)F)cc1 (configuration not stated) — lower, 48 to 55 °C
- CC12CCC3C(CCC4CC(I)CCC43C)C1CCC2=O (configuration not stated) — lower, 123 to 125 °C
- CCNC(=O)Cc1ccc2ccn(C3CCN(CCc4ccc(F)cc4)CC3)c2c1 — lower, 160 °C
- N#Cc1ccc2c(c1)NC(=O)C2c1ncnc2nn(C3CCCC3)cc12 (configuration not stated) — higher, 340 to 344 °C
- O=C1CCCC2=C1C(c1cccnc1)C1=C(CCS1)N2 (configuration not stated) — higher, > 250 °C
- CP(C)(=O)COC(=O)c1cncn1C(c1ccccc1)c1ccccc1 — higher, 174 °C
- Cc1ccc(C2SC(=S)N(C(=O)NN3CCOCC3)C2C)cc1 (configuration not stated) — lower, 101 to 103 °C
- Cc1c(F)cccc1C(=O)Nc1ccc(C(=O)N2CCCC(=O)c3sccc32)cc1 — higher, 200 to 202 °C
- OC[C@H]1CC[C@H](c2ccc(F)cc2)CC1 — lower, 65 to 70 °C
- COC1Nc2c(OC(C)=O)cccc2C(=O)N2CCCC12 (configuration not stated) — lower, 147 to 150 °C
- COc1cc(N2CCN(C)CC2)ccc1-c1cnn2c(N)c(-c3cccc(Cl)c3)c(C)nc12 — higher, 174 to 178 °C
- Cc1csc2[nH]c(=O)nc(-c3ccccc3F)c12 — higher, 258 to 261 °C
- CCCO[C@@H]1C[C@@H](C(=O)NC)N(S(=O)(=O)c2ccc(Cl)c(COc3cccc4c(-n5ccnc5)cc(C)nc34)c2Cl)C1 — lower, 84 °C
- O=C1Nc2cc(Cl)ccc2Sc2ccccc21 — lower, 163 to 165 °C
- CN(CCOc1ccc(CC2SC(=O)NC2=O)cc1)c1ncccn1 (configuration not stated) — lower, 150 to 151 °C
- COc1ccc(C2SCC(C(=O)O)N2C(=O)c2ccccc2)cc1 (configuration not stated) — lower, 108 to 110 °C
- CCOC(=O)C(CC)Oc1ccccc1C(C)=O (configuration not stated) — lower, 43 to 45 °C
- Nc1ccc(-c2nnn(-c3ccc(C(F)(F)F)cc3F)c2N)cc1 — lower, 164 to 165 °C
- O=Cc1cn(Cc2ccc(Cl)cc2)nc1CN1CCC(c2ccccc2)(c2ccccc2)CC1 — lower, 133 to 134 °C
- CCCOc1ncc(NS(=O)(=O)CC(=O)O)cc1-c1nc2c(CCC)nn(C)c2c(=O)[nH]1 — higher, 267 to 270 °C
- N=c1sc2cc(OC(F)(F)F)ccc2n1CCSc1ccncc1 — lower, 143 °C
- CNC1(C)CN(c2c(F)cc3c(=O)c(C(=O)O)cn(C4CC4)c3c2F)C1 — higher, > 300 °C
- O=C(O)COc1c2c3c(ccnc3c3ccccc13)CCC2 — higher, 228 °C
- c1ccc(C2CSC(c3ccccc3)N2)cc1 (mixture of isomers) — lower, 120 °C
- COC(CCNC(=O)C(F)(F)F)(c1ccccc1)c1ccccc1 — lower, 108 to 110 °C
- CCCCOC(=O)C(C#N)C(=O)c1ccc(Cl)cc1[N+](=O)[O-] (configuration not stated) — lower, 56 to 58 °C
- Cc1ccc(C)c(C2CC(=O)c3c(C)ccnc3C2)c1 (configuration not stated) — lower, 95 to 96 °C
- O=c1c2c(Cc3ccc(F)cc3)n[nH]c2c2cccnc2n1-c1cccc(OC(F)(F)F)c1 — higher, 226 to 228 °C
- CCOC(=O)c1ccc([C@H]2CC[C@H](NCc3ccccc3)CC2)cc1 — lower, 74 to 76 °C
- CCOC(=O)c1cc(N)ccc1OC(C)=O — lower, 82.5 to 83 °C
- O=C(O)c1cccc(-c2ccc3occ(-c4ccc(Cl)cc4Cl)c3c2)c1 — higher, 271 to 272 °C
- CCC(=O)N[C@H]1CCc2c(ccc(OC)c2OC)C1 — lower, 149 to 151 °C
- N#Cc1c(OCC(F)(F)F)nc(CO)nc1N1CCc2ccccc2CC1 — lower, 106 to 110 °C
- CCOC(=O)c1cn(Cc2csnn2)c2cc(F)c(F)cc2c1=O — higher, 234 to 237 °C
- O=C(O)COc1ccc(C(=O)c2ccccc2F)c(Cl)c1Cl — lower, 153 to 156 °C
- COc1ccc(C(=O)Nc2c(Cl)cncc2Cl)c2c1OCCCCO2 — lower, 115 to 117 °C
- COc1ccc2sc(C(=O)Nc3ccc(CC(=O)O)cc3)c(OC(C)C)c2c1 — higher, 196 °C
- CNS(=O)(=O)Cc1ccc2[nH]cc(CCN=CNc3ccccc3)c2c1 — lower, 72 to 73 °C
- Cc1ccc(S(=O)(=O)OCCN2Cc3ccccc3C2=O)cc1 — lower, 75 °C
- CCCCCCc1ncc(C(=O)O)s1 — lower, 73 °C
- CN1C(=O)CC[C@]2(C)c3ccc(Sc4nc5cc([N+](=O)[O-])ccc5s4)cc3CC[C@@H]12 — lower, 96 to 100 °C
- N#Cc1ccc(Oc2ccc([N+](=O)[O-])c(Oc3ccccc3)c2Cl)cc1 — lower, 140 to 142 °C
- CON=C(C(=O)OC)c1ccccc1C#CC(=O)c1ccccc1 — lower, 89 to 94 °C
- COC(=O)C1=C(C(OC)OC)NC(C)=C(C(=O)OCC(C)C)C1c1ccccc1C#N (configuration not stated) — lower, 126 to 128 °C
- c1csc(Cn2ccnc2-c2ncc[nH]2)c1 — lower, 153 to 155 °C
- COc1ccc(C=C(NC(=O)c2ccccc2)C(=O)O)cc1OC — higher, 196 to 198 °C
- COc1cc(OC)c(C(C)=O)c(O)c1CC=C(C)C — lower, 110 to 111 °C
- Cc1c(NC(=O)CC(C)(C)C)c(C)c2c(C)coc2c1Cc1ccc(C(C)C)cc1 — higher, 171 to 172 °C
- O=Cc1c[nH]c2cccc(O)c12 — higher, 196 to 200 °C
- COC(=O)c1cc(Cl)c(Cl)c(Cl)c1 — lower, 111 to 112 °C
- CC(C)OC(=O)C1=C2SCC(=CC(=O)N3CCCCC3)N2CC1 — lower, 128 to 130 °C
- COc1cnc[nH]c1=O — higher, 206 to 208 °C
- Oc1ccc(-c2cc3c(Br)c(O)cc(Br)c3o2)cc1 — higher, 215 to 217 °C
- CC1CC2=CC(=O)CCC2C2CCC3(C)C(C=O)CCC3C12 (configuration not stated) — higher, 207 to 230 °C
- Nc1cc(C(=O)NNC(=O)c2occ(-c3ccccc3)c2-c2ccccc2)ccc1O — higher, 268 to 270 °C
- COCOc1ccc(CCCOc2nn(C)cc2CC(=O)O)c(Oc2ncc(C(F)(F)F)cc2Cl)c1 — lower, 122 to 123 °C
- CC1=CC(OC(=O)c2ccc(N(C)C)cc2)C(O)C(C)(C)CC1=O (configuration not stated) — lower, 162 to 163 °C
- O=C(O)c1cnc2cc(I)ccc2n1 — higher, 242 to 244 °C
- COC(=O)c1ccc2[nH]cc(C3=CCN(C)CC3)c2c1 — higher, 202 to 204 °C
- COc1cc(-c2sc3nc(N)[nH]c(=O)c3c2C)ccc1Cl — higher, 312 to 322 °C
- O=C(c1ccc(Br)s1)c1c(F)c(F)cc(F)c1F — lower, 51 to 54 °C
- Cn1nc(CCc2ccncc2)c2c(=O)n(-c3ccccc3)c3ncccc3c21 — higher, 285 to 286 °C
- O=C(O)COc1ccc(C(=O)Nc2ccccc2Sc2ccccc2-c2nnn[nH]2)cc1 — higher, 252 to 253 °C
- CNC(=S)C1=CC(C)(COC)Oc2ccc([N+](=O)[O-])cc21 (configuration not stated) — lower, 146 to 148 °C
- COC(=O)C(Cc1c[nH]c2ccccc12)NC(=S)c1ccc2c(c1)OCO2 (configuration not stated) — lower, 129 to 130 °C
- O=C1CCCOc2ccc(O)cc21 — lower, 116 to 120 °C
- CN1CCN([C@H]2CC[C@@H](N)CC2)C1=O — lower, 81 to 87 °C
- O=C(O)c1ccccc1NC(=O)c1ncoc1-c1ccc(C(F)(F)F)cc1 — higher, 231 to 232 °C
- CC(=O)c1cc(=O)n(CCC(C(=O)NO)N(C)S(=O)(=O)c2ccc(Oc3ccccc3)cc2)c(=O)[nH]1 (configuration not stated) — not separable, 167 to 169 °C
- COC(=O)COc1ccc(C)c2c1c1c(n2Cc2ccccc2)CCCC1C(N)=O (configuration not stated) — higher, 209 °C
- CC(Br)C(=O)c1cc([N+](=O)[O-])cs1 (configuration not stated) — lower, 82.5 to 83 °C
- CCOC(=O)c1c2n(c3cc(N4CCN(CC(C)=O)CC4)c(F)cc3c1=O)C(C)S2 (configuration not stated) — higher, 196 to 200 °C
- NN=C(c1ccccc1)c1cc(Cl)ccc1N — lower, 133 to 134 °C
- CN(C)C(=O)CC1(C)OCCc2c1[nH]c1ccccc21 (configuration not stated) — lower, 149 to 151 °C
- CC(C)(C)OC(=O)NC(=NS(=O)(=O)C(F)(F)F)NC(=O)OCc1ccccc1 — lower, 95 to 97 °C
- NC(=O)/C=C1/c2cc(F)cc(F)c2CC1O (configuration not stated) — higher, 235 to 237 °C
- COc1cc2c(cc1O)CCN(Cc1cc(OC)c(OC)c(OC)c1)C2 — higher, 170 to 171 °C
- CCOC(=O)Cc1cc(O)ccc1F — lower, 85 to 87 °C
- Nc1ccccc1NC(=O)CCCCCCNC(=O)c1cn2c3c(cccc13)CCC2 — lower, 144 to 145 °C
- CCCC(CCC)n1nnc2c(Cl)nc(C)cc21 — lower, 90 to 91 °C
